Structures can show the parent of a compound that is named as a salt. Active and inactive are the calls of the source. The rule behind the calls is not given here.
Columns and labels:
[1] = Antiproliferative activity against human BxPC3 cells assessed as cell growth at 10 uM after 72 hrs by CellTitre assay relative to control; format: functional; conditions: BXPC-3, 72 h, read-out: Activity
[2] = Antiproliferative activity against human MIAPaCa2 cells assessed as cell growth at 10 uM after 72 hrs by CellTitre assay relative to control; format: functional; conditions: MIA PaCa-2, 72 h, read-out: Activity
[3] = Antiproliferative activity against human PANC1 cells assessed as cell growth at 10 uM after 72 hrs by CellTitre assay relative to control; format: functional; conditions: PANC-1, 72 h, read-out: Activity
[4] = system: PANC-1; assay: Antiproliferative activity against human PANC1 cells assessed as cell growth at >100 uM after 72 hrs by CellTitre assay relative to control; format: functional, cell-based

Row | SMILES | growth at 10 µM [1] [%] | growth at 10 µM [2] [%] | growth at 10 µM [3] [%] | Activity [4]
1 | CN(C)C[C@H]1C(=O)O[C@@H](c2ccccc2)[C@@H]1c1ccccc1 (racemic) | 0 | 1 | 0 | –
2 | O=C1O[C@@H](c2ccccc2)[C@H](c2ccccc2)[C@H]1CN1CCCCC1 (racemic) | 1 | 1 | 1 | –
3 | C=C1C(=O)O[C@@H]2[C@H]3O[C@]3(C)CC/C=C(\C)CC[C@@H]12 | 6 | 3 | 12 | –
4 | C=C1C(=O)O[C@H](c2ccccc2)[C@@H]1c1ccccc1 (racemic) | 8 | 3 | 38 | –
5 | O=C1O[C@@H](c2ccccc2)[C@H](c2ccccc2)[C@H]1CN1CCOCC1 (racemic) | 9 | 10 | 16 | –
6 | O=C1O[C@H](c2ccccc2)[C@H](c2ccccc2)[C@@H]1CN1CCCCC1 (racemic) | 3 | 11 | 8 | –
7 | O=C1O[C@H](c2ccccc2)[C@H](c2ccccc2)[C@@H]1CN1CCCC1 (racemic) | 0 | 17 | 11 | –
8 | O=C1O[C@H](c2ccccc2)[C@H](c2ccccc2)[C@@H]1CN(Cc1ccccc1)Cc1ccccc1 (racemic) | 34 | 33 | 75 | –
9 | C=C1C(=O)O[C@@H](c2ccccc2)[C@@H]1c1ccccc1 (racemic) | 1 | 1 | 1 | –
10 | O=C1O[C@@H](c2ccccc2)[C@H](c2ccccc2)[C@H]1CN(Cc1ccccc1)Cc1ccccc1 (racemic) | 50 | 35 | – | inactive
11 | CN(C)C[C@@H]1C(=O)O[C@H](c2ccccc2)[C@@H]1c1ccccc1 (racemic) | 1 | 9 | 30 | –
12 | O=C1O[C@@H](c2ccccc2)[C@H](c2ccccc2)[C@H]1CN1CCCC1 (racemic) | 0 | 1 | 3 | –
13 | O=C1O[C@H](c2ccccc2)[C@H](c2ccccc2)[C@@H]1CN1CCOCC1 (racemic) | 6 | 13 | 19 | –
14 | C/C1=C\CC[C@@]2(C)O[C@@H]2[C@H]2OC(=O)[C@@H](CN(C)C)[C@@H]2CC1 [(DIMETHYLAMINO)PARTHENOLIDE FUMARIC ACID SALT] | 7 | 2 | 17 | –
15 | CCN(CC)C[C@@H]1C(=O)O[C@H](c2ccccc2)[C@@H]1c1ccccc1 (racemic) | 1 | 17 | 42 | –
16 | CCN(CC)C[C@H]1C(=O)O[C@@H](c2ccccc2)[C@@H]1c1ccccc1 (racemic) | 0 | 1 | 1 | –
17 | O=C1O[C@@H](c2ccccc2)[C@H](c2ccccc2)[C@H]1CN(Cc1ccccc1)C(=O)c1ccccc1 (racemic) | 81 | 92 | – | inactive

— ChEMBL document CHEMBL3112546, “Synthetic α-(aminomethyl)-γ-butyrolactones and their anti-pancreatic cancer activities” (2013)
